These results are taken from patent publication US20080119548A1, “Control Of Feeding Behavior By Changing Neuronal Energy Balance” (priority 2004, published 2008).

The structures appear in SMILES notation.

The test system of one experiment is BALB/c male mice. The experiment can be described thus: Measurement of food intake after i.c.v. or i.p. injection. It is filed as in vivo. The procedure: Male BALB/c mice (7-9 weeks) were purchased from Charles River Laboratories (and housed in a controlled-light (12 hr light/12 hr dark cycle) environment (lights on 0200-1400 h) and allowed ad libitum access to standard laboratory chow and water. For fasting, food was withdrawn from cage at the onset of the dark cycle for 24 hr, but ad libitum access to water was allowed.
Mice were implanted with permanent stainless steel cannulae into the lateral ventricle of the brain 0.6 mm caudal to Bregma, 1.2 mm lateral to the midline, and sunk to a depth of 2.2 mm below the surface of the skull. Implanted mice were housed in individual cages and utilized for i.c.v. and i.p. injections as indicated. C75 dissolved in RPMI1640 (Gibco-BRL), AICAR (Toronto Research Chemicals Inc) or compound C (46) (FASgen, Inc.) in saline was injected i.c.v., such that desired dose could be administered in a volume of 2.5 μl, while control groups received vehicle only. Injections were done immediately preceding dark onset and food intake measurements were taken at 1 hr (0-1 hr interval), 3 hr (1-3 hr interval), and 24 hr (3-24 hr interval) after dark onset. C75 i.p./AICAR i.c.v. treatment groups were i.p. injected with 5 mg/kg bodyweight C75 dissolved in […] of glucose-free RPMI 1 hr before the dark onset, followed by 3 μg/2.5 μl saline i.c.v. AICAR immediately preceding the dark onset. Control groups received 200 μl of glucose free RPMI 1 hr before lights off and 2.5 μl of saline. Administration of i.p. compound C (10 or 30 mg/kg bodyweight) or C75 (10 mg/kg bodyweight) was followed by food intake measurement at the same times indicated.

A further experiment has as its system liver AMPKα. The experiment is described as follows: Western blot of phosphorylated AMPKα in liver. The note with it: C75 i.p. The format is in vivo, mice. As to the method:
Hypothalami were dissected using as landmarks the optic chiasm rostrally, and the mammillary bodies caudally to a depth of 2 mm. Dissected hypothalamic and liver tissue were immediately frozen in liquid nitrogen. Tissues were homogenized in 200 μl of lysis buffer (50 mM Tris-HCl, pH 7.5, 250 mM sucrose, 5 mM sodium pyrophosphate, 50 mM NaF, 1 mM EDTA, 1 mM EGTA, 1 mM DTT, 0.5 mM PMSF, 0.1 mM benzamidine, 50 μg/ml leupeptin, 50 μg/ml soybean trypsin inhibitor). SDS detergent was added to a final 0.2%, and lysates were boiled for 5 min. After the supernatant was harvested, protein concentration was determined by BCA kit (Bio Rad). Phosphorylation of AMPKα was determined on a 4-15% gradient SDS-polyacrylamide gel using anti-phospho-AMPKα (α1 and α2, Thr172) antibody (1:1000, Cell Signaling). Anti-AMPKαt antibody (α1 and α2, 1:1000, Cell Signaling) was used as a loading control.
In general terms: Immunoblotting shows a protein as a band on a membrane.

Experiment [1] has as its system primary hypothalamic neurons. The experiment is described as follows: ATP measurement in primary hypothalamic neuron cultures. The format is cell-based, Sprague-Dawley rats. As to the method: Hypothalami were dissected from E17 Sprague-Dawley rats (Harlan), and dissociated by trypsin (0.125%)-DNA (0.001%) solution and trituration as described by Landree, et al., J. Biol. Chem., 279, 3817-3827. Cells were plated at 6×10^4 on poly-D-lysine coated 96 well plates (Corning Inc.) in neurobasal medium supplemented with B27, 0.5 mM L-glutamine, 1% penicillin-streptomycin (Gibco-BRL). To limit nonneuronal cell proliferation, cells were treated with cytosine arabinoside furanoside (1 μM) on day 4 after plating and 6-8 days-old cells were assayed for ATP. Hypothalamic neurons were lysed in TE (100 mM Tris-HCl, pH 7.4, 4 mM DTA), and ATP levels were measured within the linear range using the ATP BioLuminescence Kit CLSII (Roche) by following the manufacture's recommendation. Data were analyzed by a Perkin-Elmer Victor^2 1420.

The subject of a further experiment is pCREB. The experiment can be described thus: Immunohistochemistry of pCREB in the arcuate nucleus. The following applies: C75-treated (24 hr) mice. The format is in vivo, mice. As to the method: Free-floating sections were blocked in PBS containing 5% goat serum, 0.1% BSA, 0.05% Triton-X100, 1 mM NaF for 1 hr at room temperature and incubated with anti-phospho-AMPKα (α1 and α2) antibody (1:100) or anti-phospho-CREB antibody (1:500, Cell Signaling) in PBS containing 1% goat serum, 0.1% BSA, 0.05% Triton-X100, 1 mM NaF overnight at 4° C. Signal was visualized by Vectastain ABC kit (Vector). Images of in situ hybridization and immunohistochemistry were visualized using an Axiocam HRc digital camera (Carl Zeiss) and images were acquired using Improvision Openlab software, and quantified by NIH Image program (Macro).

Experiment [2] concerns lean, diet-induced obese (DIO), and genetically obese (ob/ob) mice. The following applies: cited from earlier work.

On to `C=C1C(=O)OC(CCCCCCCC)C1C(=O)O` (centres unmarked) [C75], for which the “reduction in food intake over 24 hr” value with BALB/c male mice (C75 5 mg i.c.v., p<0.05) is reported as 20.3%; in the experiment on BALB/c male mice (C75 10 mg i.c.v., p<0.01), 37.7%. Further, the “food intake at 1 hr, % of control (RPMI/saline)” value in the experiment on BALB/c male mice (C75 5 mg/kg bodyweight i.p. 1 hr before dark onset, saline i.c.v., p<0.01) is given as 37.5 % of control. Further, the “food intake, % of control” value in the experiment with BALB/c male mice (C75 10 mg/kg bodyweight i.p., 0-1 hr) is on record as 8.3 % of control; with BALB/c male mice (C75 10 mg/kg bodyweight i.p., 1-3 hr), 23.3 % of control; with BALB/c male mice (C75 10 mg/kg bodyweight i.p., 3-24 hr), 30.1 % of control. In addition, in the experiment on BALB/c male mice (C75 10 mg/kg bodyweight i.p., total 24 hr, p<0.001), the “total 24 hr-food consumption, % of control” value is reported as 26.3 % of control. For the same compound, the “food intake during the 1-3 and 3-24 hr time intervals” value in the experiment on BALB/c male mice (C75 i.c.v., dose-dependent) is given as “significantly reduced food intake”. The “pAMPKα levels in the liver” value in the experiment on liver AMPKα (30 min after administration) was “little effect”; with liver AMPKα (3 hr), “increased pAMPKα levels”. Besides, the “neuronal ATP levels, % of control” value in experiment [1] (40 mg/ml C75, 30 min) is 118 % of control; in experiment [1] (40 mg/ml C75, 2 hr) it was 128 % of control. Besides, the “level of pCREB in the arcuate nucleus, % of control” value with pCREB was 39 % of control. In experiment [2], the “weight loss and anorexia” value was “profound weight loss and anorexia”.
